Data taken from ChEMBL document CHEMBL2073866, “Cellular pharmacokinetic aspects of reversal effect of itraconazole on P-glycoprotein-mediated resistance of anticancer drugs” (Biol Pharm Bull, 1999).

Assays:
[1] = molecular target: T1, ATP-dependent translocase ABCB1 (Homo sapiens, UniProt P08183); assay: TP_TRANSPORTER: transepithelial transport (basal to apical) in MDR1-expressing LLC-PK1 cells; type: functional, cell-based; settings: pig
[2] = molecular target: T1, ATP-dependent translocase ABCB1; assay: TP_TRANSPORTER: inhibition of Azidopine photoaffinity labelling (Azidopine: 0.4 uM, Daunorubicin: 400 uM) in membranes from MDR1-expressing LLC-PK1 cells; type: functional, cell membranes, Membrane; settings: pig, llc-pk1, 400 µM
[3] = molecular target: T1, ATP-dependent translocase ABCB1; assay: TP_TRANSPORTER: inhibition of Azidopine photoaffinity labelling (Azidopine: 0.4 uM, Doxorubicin: 400 uM) in membranes from MDR1-expressing LLC-PK1 cells; type: functional, cell membranes, Membrane; settings: pig, llc-pk1, 400 µM
[4] = molecular target: T1, ATP-dependent translocase ABCB1; assay: TP_TRANSPORTER: inhibition of Doxorubicin transepithelial transport (basal to apical) (Doxorubicin: 0.1 uM, Itraconazole: 100 uM) in MDR1-expressing LLC-PK1 cells; type: functional, cell-based; settings: pig, llc-pk1, 100 µM
[5] = molecular target: T1, ATP-dependent translocase ABCB1; assay: TP_TRANSPORTER: inhibition of Vinblastine transepithelial transport (basal to apical) (Vinblastine: 0.1 uM, Itraconazole: 100 uM) in MDR1-expressing LLC-PK1 cells; type: functional, cell-based; settings: pig, llc-pk1, 100 µM
[6] = molecular target: T1, ATP-dependent translocase ABCB1; assay: TP_TRANSPORTER: inhibition of Digoxin transepithelial transport (basal to apical) (Digoxin: 0.1 uM, Itraconazole: 100 uM) in MDR1-expressing LLC-PK1 cells; type: functional, cell-based; settings: pig, llc-pk1, 100 µM
[7] = molecular target: T1, ATP-dependent translocase ABCB1; assay: TP_TRANSPORTER: inhibition of Azidopine photoaffinity labelling in membranes from MDR1-expressing LLC-PK1 cells; type: functional, cell membranes, Membrane; settings: pig
[8] = molecular target: T1, ATP-dependent translocase ABCB1; assay: TP_TRANSPORTER: inhibition of Azidopine photoaffinity labelling (Azidopine: 0.4 uM, Vinblastine: 400 uM) in membranes from MDR1-expressing LLC-PK1 cells; type: functional, cell membranes, Membrane; settings: pig, llc-pk1, 400 µM

T1 sequence (P08183 whole entry): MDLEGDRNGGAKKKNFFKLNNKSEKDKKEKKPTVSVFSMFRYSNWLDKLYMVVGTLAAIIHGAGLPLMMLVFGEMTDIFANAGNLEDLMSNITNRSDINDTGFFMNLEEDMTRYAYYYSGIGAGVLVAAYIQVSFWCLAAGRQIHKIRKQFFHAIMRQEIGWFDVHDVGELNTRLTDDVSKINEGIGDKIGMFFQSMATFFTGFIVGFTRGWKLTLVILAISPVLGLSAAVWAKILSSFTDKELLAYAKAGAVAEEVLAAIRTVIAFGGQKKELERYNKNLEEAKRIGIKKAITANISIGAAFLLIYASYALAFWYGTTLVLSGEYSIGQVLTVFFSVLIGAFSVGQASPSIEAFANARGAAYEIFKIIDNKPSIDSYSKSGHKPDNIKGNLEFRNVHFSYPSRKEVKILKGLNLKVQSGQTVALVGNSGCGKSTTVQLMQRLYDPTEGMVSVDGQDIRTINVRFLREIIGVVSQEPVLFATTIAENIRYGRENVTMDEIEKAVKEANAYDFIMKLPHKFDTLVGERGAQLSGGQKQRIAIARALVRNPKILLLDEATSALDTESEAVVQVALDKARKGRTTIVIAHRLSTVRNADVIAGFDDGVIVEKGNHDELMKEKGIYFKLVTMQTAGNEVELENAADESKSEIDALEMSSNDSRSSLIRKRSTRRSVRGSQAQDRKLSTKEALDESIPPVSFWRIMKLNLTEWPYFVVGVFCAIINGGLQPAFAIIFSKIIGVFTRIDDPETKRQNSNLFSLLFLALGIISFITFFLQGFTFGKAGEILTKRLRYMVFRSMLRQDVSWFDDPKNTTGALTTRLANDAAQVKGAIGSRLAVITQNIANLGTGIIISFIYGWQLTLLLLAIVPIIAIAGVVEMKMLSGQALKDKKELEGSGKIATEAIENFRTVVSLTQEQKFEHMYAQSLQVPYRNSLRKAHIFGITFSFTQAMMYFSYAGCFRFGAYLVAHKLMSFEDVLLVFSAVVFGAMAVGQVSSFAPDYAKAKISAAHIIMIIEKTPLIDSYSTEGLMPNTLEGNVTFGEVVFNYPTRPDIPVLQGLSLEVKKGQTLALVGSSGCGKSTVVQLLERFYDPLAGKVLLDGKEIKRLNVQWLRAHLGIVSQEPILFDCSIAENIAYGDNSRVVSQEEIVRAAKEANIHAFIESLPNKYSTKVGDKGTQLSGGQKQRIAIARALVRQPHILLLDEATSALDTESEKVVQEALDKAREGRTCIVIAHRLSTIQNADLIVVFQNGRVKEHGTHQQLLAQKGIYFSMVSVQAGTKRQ

In the case of `COc1cccc2c1C(=O)c1c(O)c3c(c(O)c1C2=O)C[C@@](O)(C(C)=O)C[C@@H]3O[C@H]1C[C@H](N)[C@H](O)[C@H](C)O1` [DAUNORUBICIN], the Activity [1] was “substrate [+]” and the Activity [2] was “inhibitor [+]”.

For `COc1cccc2c1C(=O)c1c(O)c3c(c(O)c1C2=O)C[C@@](O)(C(=O)CO)C[C@@H]3O[C@H]1C[C@H](N)[C@H](O)[C@H](C)O1` [DOXORUBICIN], the Activity [3] was “inhibitor [+]”.

`CCC(C)n1ncn(-c2ccc(N3CCN(c4ccc(OCC5COC(Cn6cncn6)(c6ccc(Cl)cc6Cl)O5)cc4)CC3)cc2)c1=O` (stereo not drawn) [ITRACONAZOLE] was tested, and the Activity [4] was “inhibitor [+]”, the Activity [5] was “inhibitor [+]” and the Activity [6] was “inhibitor [+]”. The Activity [7] was “inhibitor [+]”.

In the case of `CC[C@]1(O)C[C@@H]2CN(CCc3c([nH]c4ccccc34)[C@@](C(=O)OC)(c3cc4c(cc3OC)N(C)[C@H]3[C@@](O)(C(=O)OC)[C@H](OC(C)=O)[C@]5(CC)C=CCN6CC[C@]43[C@@H]65)C2)C1` [VINBLASTINE], the Activity [8] was “inhibitor [+]”.
